Assay results from paper PMC3303154 (2011).

Target: 20S proteasome (chymotrypsin-like activity) (Homo sapiens, UniProt P28074)
Test: fluorogenic Suc-LLVY-AMC peptidase assay with purified […] proteasome
Type: biochemical

Chain of 20S proteasome (chymotrypsin-like activity) (P28074 60-263): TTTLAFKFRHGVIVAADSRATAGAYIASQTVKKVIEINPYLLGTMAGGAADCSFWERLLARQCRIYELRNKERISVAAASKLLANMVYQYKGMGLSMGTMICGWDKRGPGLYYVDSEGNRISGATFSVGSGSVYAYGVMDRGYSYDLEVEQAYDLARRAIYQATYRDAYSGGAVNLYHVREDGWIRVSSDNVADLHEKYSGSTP

`CC(C)=CC[C@]12Oc3cc(O)c([C@H]4C=C(C)C[C@H](c5ccc(O)cc5O)[C@H]4C(=O)c4ccc(O)cc4O)c(O)c3C(=O)[C@@]1(O)Oc1cc(O)ccc12` [Sanggenon C] was tested, and the IC50 was 4 µM.
